Experimental data: US20040122209A1, “Products for regulating the degradation of collagen and methods for identifying same” (Shriners Hospital For Children, priority 2002, published 2004)
Entries after “also recorded” stand apart in the source; their conditions may differ.

Experiments:
[1] = tested on: normal human adult articular cartilage explants; test: Type II collagen cleavage by collagenase (COL2-3/4C) in human articular cartilage explant culture; format: cell-based
Method: Human femoral chondylar cartilages were obtained at autopsy within 18 hours of death from adult persons with no known history of arthritis and no macroscopic signs of articular degeneration. None of the persons had diabetes or had received chemotherapy prior to autopsy. Adult bovine articular cartilage was obtained from adults/bovine steers and cows from metacarpalphalangeal joints obtained at the abbatoir immediately after slaughter. All cartilage specimens were removed immediately to the laboratory under sterile conditions.
(§1) The cartilages were prepared as previously described (Dahlberg, L. et al. (2000) supra. In brief, the cartilage samples were washed three times with basal culture medium containing Dulbecco's modified Eagle's medium (DMEM; Gibco BRL, Life Technologies, Grand Island, N.Y.) with 20 mM HEAPS buffer (pH 7.4) (Gibco BRL), 45 mM NaHCO3, 100 units/ml penicillin, 100 μg/ml streptomycin and 150 μg/ml gentamycin sulphate (Medium A). Full-depth cartilage slices from a single area, around 20 mm×20 mm were cut vertical to the articular surface and then into cubes of approximately 2 mm×2 mm (5-7 cubes were randomly obtained and wet weights about 50-70 mg/well determined).
The cartilage was assigned to 48 well plate (ca 40 mg/well) and kept in Medium A supplemented with 50 μg/ml ascorbic acid, 0.1 mg/bovine serum albumin, 50 μg/ml insulin, 5.0 μg/ml and 5.0 μg/ml sodium DMEM alone at 37° C. in 95% air/5% CO2. The cartilage was precultured for 2 days and medium was changed at day 0. Thereafter medium (as described in pellet cultures) was replaced every four days. Various CNBr fragments and/or synthetic peptides were freshly added from day 0 at each medium change. Thereafter, cartilage explants and conditioned media were harvested and stored at −20° C.
The cell pellets and cartilage explant cultured for various times were digested for the extraction of collagenase-generated neoepitope COL2-3/4Cshort (Billinghurst, R. C. et al., (1997) supra) and denatured type II collagen epitope COL2-3/4m and total type II collagen (Hollander, A. P. et al. (1994a) supra), as previously described: Briefly, the harvested pellets were incubated overnight with 1.0 mg/ml α-chymotrypsin at 37° C. to cleave and solubilize denatured collagen leaving the above neoepitope and epitope intact. After inhibition of α-chymotrypsin activity with N-tosyl-L-phenelalanine-chloromethyl ketone (Sigma), the samples were centrifuged and the supernatants were removed and boiled for 10 min. The COL2-3/4Cshort epitope (hereafter referred to as COL2-3/4Cshort) generated by cleavage of type II collagen by collagenase (Billinghurst, R. C. et al. (1997) supra) and intrachain epitope (COL2-3/4m) exposed in denatured type II collagen (Hollander, A. P. et al. (1994a) supra) were measured in α-chymotrypsin extracts by immunoassay. The COL2-3/4Cshort epitope is detected in an ELISA assay using a rabbit antibody to the carboxyterminal cleavage neoepitope on the TCA piece generated by primary collagenase cleavage of type II collagen. The release of the COL2-3/4C epitope into media was also measured by immunoassay. Total contents in tissue/cells and media was recorded for COL2-3/^4Cshort epitope. The COL2-3/4m epitope was recorded in cells and tissue where it was concentrated. The remaining residues of pellets and explants were digested overnight with 1.0 mg/ml proteinase K at 56° C. to extract the remaining intact type II collagen and then boiled for 10 min to denature the enzyme. Total type II collagen content in the pellets and explant was determined from the collective amount of COL2-3/4m in both the α-chymotrypsin and proteinase K digests.

[2] = tested on: normal human adult articular cartilage explants; test: Proteoglycan release and content (DMMB dye assay) in human explant culture; format: cell-based
Method: Cumulative proteoglycan (mainly aggrecan) released into medium was calculated by summation of proteoglycan contents in medium at each medium change of every four days. Cartilage explants were maintained for up to 16 days cultured with or without CB12-II at 10 μM. Sulfated glycosaminoglycan in medium was assayed by dimethylmethylene blue (DMMB) method. Data are expressed as μg GAG release per wet weight of cartilage.
as §1
The cartilage was assigned to 48 well plate (ca 40 mg/well) and kept in Medium A supplemented with 50 μg/ml ascorbic acid, 0.1 mg/bovine serum albumin, 50 μg/ml insulin, 5.0 μg/ml and 5.0 μg/ml sodium DMEM alone at 37° C. in 95% air/5% CO2. The cartilage was precultured for 2 days and medium was changed at day 0. […]
In order to show the specificity of the peptide fragments of one embodiment on degradation of type II collagen as compared with proteoglycan, primarily aggrecan, sulphated glycosaminoglycan (GAG) content was determined in both the α-chymotrypsin and proteinase K digests for total proteoglycan (predominantly aggrecan) content in cell pellets, cartilage explants and also in conditioned media. […]
In order to examine any effects of SP on proteoglycan catabolism in normal human articular cartilage, cumulative proteoglycan (mainly aggrecan) release into medium and proteoglycan content in cartilage were determined by DMMB (1,9-dimethylmethyleneblue) dye assay.

ERGPPGPQGARGFPGTPGLPGVK [CB12-II]
induction of cleavage of type II collagen, dose dependence ([1]; 1 μM (one donor), 5 μM and 10 μM (both donors), over 16 days): dose dependent manner; also recorded: Activity was seen
COL2-3/4 epitope production in cartilage and medium ([1]; 10 μM, day 12): significant progressive increase
type II collagen cleavage by collagenase in presence of peptide ([1]; hydroxylation study, day 16): clearly enhanced
cumulative proteoglycan release, SP-treated versus control specimens ([2]; 10 μM, up to 16 days): no significant difference
proteoglycan release into medium ([2]; 10 μM, up to 16 days): did not induce proteoglycan release
proteoglycan content in cartilage explants ([2]; data not shown): nor did it decrease proteoglycan content
